Measurements reported in patent publication US20210221866A1, “PROTEASE-RESISTANT LIPIDATED GLP-1 ANALOGS” (MEDIMMUNE LIMITED, priority 2015, published 2021).
Numbered stars: 1 amine (or outer) side, 2 acyl side, 3 side chain; on linkers, the order of the positions; unused ones are H or OH. Square brackets hold non-standard residues; d marks the D form. Side chains are listed from the residue outwards. Peptide text beside a SMILES is read from it. * marks the point of attachment. C18 diacid = O=C(O)CCCCCCCCCCCCCCCCC(=O)*; γGlu = O=C(O)[C@H](CCC(=O)[*:2])N[*:1]; Palmitoyl = CCCCCCCCCCCCCCCC(=O)*; αMeF = C[C@](N)(Cc1ccccc1)C(=O)O; αMeK = C[C@](N)(CCCCN)C(=O)O; αMeS = C[C@](N)(CO)C(=O)O; AEEA = NCCOCCOCC(=O)O; Aib = CC(C)(N)C(=O)O

Experiments:
[1] = molecular target: porcine pancreatic trypsin (Sus scrofa, UniProt P00761); test: Proteolytic resistance to trypsin (% remaining intact peptide, RP-HPLC AUC); assay type: in vitro ADME; conditions: t = 0; 37° C., pH 7.8
Procedure: Trypsin: Lyophilized porcine pancreatic trypsin (Sigma: T1426) was reconstituted to afford a solution of 100 μg/mL (˜300 units/mL) in assay buffer (50 mM Tris, 10 mM CaCl2), 150 mM NaCl, 1 mM HCl, adjusted to pH 7.8) to give the enzyme stock solution. […] Ratio enzyme (units):peptide (μmoles) ˜1:11. […] Ratio enzyme (units):peptide (μ moles) ˜1.2:1.
Lyophilized porcine pancreatic trypsin (Sigma: T7409) was reconstituted to 200 μg/mL (˜300 units/mL) in assay buffer (50 mM Tris, 10 mM CaCl2), 150 mM NaCl, 1 mM HCl, adjusted to pH 7.8) to give the enzyme stock solution. […] 15 μL aliquots (˜15 μg initial peptide) of the peptide-enzyme mixture were periodically withdrawn (t=0, 30 mins, 1 hr, 2 hr, 4 hr, 8 hr, 24 hr) and quenched immediately by addition to an equal volume (15 μL) of 5% TFA (v/v) in 1:1 water/acetonitrile to arrest proteolytic activity. 20 μL aliquots (˜10 μg initial peptide) were analysed by LC/MS and/or analytical RP-HPLC as follows: LC/MS method: Agilent Polaris C8-A column (4.6×100 mm, 3 micron) eluted with a linear binary gradient of 10-90% MeCN (0.1% TFA v/v) in water (0.1% TFA v/v) over 30 mins at 1.5 mL min^−1 at ambient temperature with detection by both UV absorption at 210 nm and ionization using a Waters 3100 mass detector (ESI^+ mode). Peptide fragments deriving from enzymatic hydrolysis were identified by molecular weight, allowing location of the site of cleavage. Analytical RP-HPLC method: Agilent Polaris C8-A column (4.6×100 mm, 3 micron) eluted with a linear binary gradient of 10-90% MeCN (0.1% TFA v/v) in water (0.1% TFA v/v) over either 10 or 15 mins at 1.5 mL min^−1 at 40° C. with detection by UV absorption at 210 nm. Manual integration (AUC) allowed estimation of remaining intact peptide over the time course of the experiment.
Lyophilized porcine pancreatic trypsin (Sigma: T7409) was reconstituted to 200 μg/mL (˜300 units/mL) in assay buffer (50 mM Tris, 10 mM CaCl2), 150 mM NaCl, 1 mM HCl, adjusted to pH 7.8) to give the enzyme stock solution. […] 25 μL aliquots (˜17 μg initial peptide) of the peptide-enzyme mixture were periodically withdrawn (t=0, 30 mins, 1 hr, 2 hr, 4 hr, 8 hr, 24 hr) and quenched immediately by addition to an equal volume (25 μL) of 5% TFA (v/v) in 1:1 water/acetonitrile to arrest proteolytic activity. 25 μL aliquots (˜8 μg initial peptide) were analysed by LC/MS and/or analytical RP-HPLC as follows: LC/MS method: Agilent Polaris C8-A column (4.6×100 mm, 3 micron) eluted with a linear binary gradient of 10-90% MeCN (0.1% TFA v/v) in water (0.1% TFA v/v) over 30 mins at 1.5 mL min^−1 at ambient temperature with detection by both UV absorption at 210 nm and ionization using a Waters 3100 mass detector (ESI^+ mode). Peptide fragments deriving from enzymatic hydrolysis were identified by molecular weight, allowing location of the site of cleavage. Analytical RP-HPLC method: Agilent Polaris C8-A column (4.6×100 mm, 3 micron) eluted with a linear binary gradient of 10-90% MeCN (0.1% TFA v/v) in water (0.1% TFA v/v) over either 10 or 15 mins at 1.5 mL min^−1 at 40° C. with detection by UV absorption at 210 nm. Manual integration (AUC) allowed estimation of remaining intact peptide over the time course of the experiment.

[2] = molecular target: T1, porcine pancreatic pepsin (Sus scrofa, UniProt P00791); test: Proteolytic resistance to pepsin (% remaining intact peptide, RP-HPLC AUC); assay type: in vitro ADME; conditions: t = 0; 37° C., pH 2.0
T1 construct: purchased Sigma P7012
Procedure: Pepsin: Lyophilized porcine pancreatic pepsin (Sigma: P7012) was reconstituted to afford a solution of 200 μg/mL (˜500 units/mL) in assay buffer (0.1 M HCl, pH 2.0) to give the enzyme stock solution. […] Ratio enzyme (units):peptide (moles) ˜1:6. […] Ratio enzyme (units):peptide (μmoles) ˜2:1.
Lyophilized porcine pancreatic pepsin (Sigma: P7012) was reconstituted to […] (˜500 units/mL) in assay buffer ([…], pH 2.0) to give the enzyme stock solution.

[3] = molecular target: T2, recombinant Neprilysin (Homo sapiens, UniProt P08473); test: Proteolytic resistance to neprilysin (% remaining peptide, RP-HPLC AUC); assay type: in vitro ADME; conditions: t = 0 (baseline); 37° C., pH 8.3; enzyme:peptide ~1:33 for non-lipidated, ~1:2.5 for lipidated peptides
T2 construct: purchased R&D Systems 1182-ZNC-010
Procedure: Ratio enzyme (units):peptide (moles) ˜1:33. […] Ratio enzyme (units):peptide (moles) ˜1:2.5.
15 μL aliquots (˜15 ng initial peptide) of the peptide-enzyme mixture were periodically withdrawn (t=0, 30 mins, 1 hr, 2 hr, 4 hr, 8 hr, 24 hr) and quenched immediately by addition to an equal volume (15 μL) of 5% TFA (v/v) in 1:1 water/acetonitrile to arrest proteolytic activity. 20 μL aliquots (˜10 ng initial peptide) were analyzed by LC/MS and/or analytical RP-HPLC as follows: LC/MS method: Agilent Polaris C8-A column (4.6×100 mm, 3 micron) eluted with a linear binary gradient of 10-90% MeCN (0.1% TFA v/v) in water (0.1% TFA v/v) over 30 mins at 1.5 mL min-1 at ambient temperature with detection by both UV absorption at 210 nm and ionization using a Waters 3100 mass detector (ESI+ mode). Peptide fragments deriving from enzymatic hydrolysis were identified by molecular weight, allowing location of the site of cleavage. Analytical RP-HPLC method: Agilent Polaris C8-A column (4.6×100 mm, 3 micron) eluted with a linear binary gradient of 10-90% MeCN (0.1% TFA v/v) in water (0.1% TFA v/v) over either 10 or 15 mins at 1.5 mL min^−1 at 40° C. with detection by UV absorption at 210 nm. Manual integration (AUC) allowed estimation of remaining intact peptide over the time course of the experiment.
25 μL aliquots (˜6 μg initial peptide) were analyzed by LC/MS and/or analytical RP-HPLC as follows: LC/MS method: Agilent Polaris C8-A column (4.6×100 mm, 3 micron) eluted with a linear binary gradient of 10-90% MeCN (0.1% TFA v/v) in water (0.1% TFA v/v) over 30 mins at 1.5 mL min^−1 at ambient temperature with detection by both UV absorption at 210 nm and ionization using a Waters 3100 mass detector (ESI^+ mode). Peptide fragments deriving from enzymatic hydrolysis were identified by molecular weight, allowing location of the site of cleavage. Analytical RP-HPLC method: Agilent Polaris C8-A column (4.6×100 mm, 3 micron) eluted with a linear binary gradient of 10-90% MeCN (0.1% TFA v/v) in water (0.1% TFA v/v) over either 10 or 15 mins at 1.5 mL min^−1 at 40° C. with detection by UV absorption at 210 nm. Manual integration (AUC) allowed estimation of remaining intact peptide over the time course of the experiment.

[4] = Proteolytic resistance to α-chymotrypsin (% remaining intact peptide, RP-HPLC AUC); conditions: recombinant α-chymotrypsin in assay buffer, pH 7.8
[5] = tested on: recombinant α-chymotrypsin; test: as above; conditions: t = 0; 37° C., pH 7.8

T2 sequence (P08473 whole entry): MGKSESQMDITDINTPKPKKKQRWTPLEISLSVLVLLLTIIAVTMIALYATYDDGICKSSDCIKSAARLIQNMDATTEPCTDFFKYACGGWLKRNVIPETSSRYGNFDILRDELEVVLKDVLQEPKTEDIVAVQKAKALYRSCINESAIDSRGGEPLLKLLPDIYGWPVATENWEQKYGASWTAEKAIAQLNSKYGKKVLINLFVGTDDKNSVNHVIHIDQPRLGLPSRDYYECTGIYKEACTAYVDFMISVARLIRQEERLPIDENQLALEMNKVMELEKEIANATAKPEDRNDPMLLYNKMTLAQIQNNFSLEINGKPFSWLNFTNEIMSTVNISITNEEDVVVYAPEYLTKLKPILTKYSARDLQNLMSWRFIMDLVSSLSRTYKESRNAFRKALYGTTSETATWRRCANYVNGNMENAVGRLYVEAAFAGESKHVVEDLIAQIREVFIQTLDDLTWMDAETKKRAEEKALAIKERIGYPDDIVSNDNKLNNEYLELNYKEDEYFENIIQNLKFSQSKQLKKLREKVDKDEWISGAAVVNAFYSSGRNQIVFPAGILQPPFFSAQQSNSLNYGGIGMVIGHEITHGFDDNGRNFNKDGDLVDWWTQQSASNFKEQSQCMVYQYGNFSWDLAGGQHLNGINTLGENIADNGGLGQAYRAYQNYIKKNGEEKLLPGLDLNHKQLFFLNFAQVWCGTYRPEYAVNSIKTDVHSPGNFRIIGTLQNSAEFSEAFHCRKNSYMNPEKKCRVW
porcine pancreatic trypsin, sequence (P00761 9-231): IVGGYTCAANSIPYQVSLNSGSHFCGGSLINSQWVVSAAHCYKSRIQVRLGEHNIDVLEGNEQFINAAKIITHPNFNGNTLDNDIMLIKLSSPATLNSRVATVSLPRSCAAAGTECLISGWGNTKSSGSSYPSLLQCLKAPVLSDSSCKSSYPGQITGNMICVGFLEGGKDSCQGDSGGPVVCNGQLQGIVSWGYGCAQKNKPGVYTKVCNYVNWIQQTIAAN
T1 sequence (P00791 60-385): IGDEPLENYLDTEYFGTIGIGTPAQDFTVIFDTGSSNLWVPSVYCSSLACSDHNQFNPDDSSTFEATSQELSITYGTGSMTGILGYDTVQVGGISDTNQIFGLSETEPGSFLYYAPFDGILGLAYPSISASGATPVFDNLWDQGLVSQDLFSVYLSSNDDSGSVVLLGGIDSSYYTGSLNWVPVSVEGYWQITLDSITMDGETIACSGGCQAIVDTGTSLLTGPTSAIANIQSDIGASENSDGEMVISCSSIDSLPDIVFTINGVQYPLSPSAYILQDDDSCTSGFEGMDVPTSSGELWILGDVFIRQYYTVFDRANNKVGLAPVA

| Percentage remaining intact peptide (AUC by RP-HPLC) upon incubation with trypsin [1] [%] | Percentage remaining intact peptide (AUC by RP-HPLC) upon incubation with pepsin [2] [%] | Percentage remaining peptide (AUC at specified time-point by RP-HPLC) upon incubation with neprilysin, t = 0 [3] [%] | remaining at 0.5 h [4] [%] | remaining at 1 h [4] [%] | remaining at 2 h [4] [%] | remaining at 4 h [4] [%] | remaining at 8 h [4] [%] | remaining at 24 h [4] [%] | Percentage remaining intact peptide (AUC by RP-HPLC) upon incubation with α-chymotrypsin [5] [%] | SMILES |
| --- | --- | --- | --- | --- | --- | --- | --- | --- | --- | --- |
| 100 | 100 | 100 | 91.6 | 87.2 | 86.3 | 86.6 | 87.7 | 82.1 | 100 | CC[C@H](C)[C@H](NC(=O)[C@](C)(Cc1ccccc1)NC(=O)[C@H](CCC(=O)O)NC(=O)[C@](C)(CCCCN)NC(=O)[C@H](C)NC(=O)[C@H](C)NC(=O)[C@H](CCC(=O)O)NC(=O)CNC(=O)[C@H](CCC(=O)O)NC(=O)[C@H](CC(C)C)NC(=O)[C@](C)(Cc1ccccc1)NC(=O)[C@H](CO)NC(=O)[C@](C)(CO)NC(=O)[C@@H](NC(=O)[C@H](CC(=O)O)NC(=O)[C@H](CO)NC(=O)[C@@H](NC(=O)[C@](C)(Cc1ccccc1)NC(=O)[C@H](CO)NC(=O)CNC(=O)[C@H](CCC(=O)O)NC(=O)C(C)(C)NC(=O)[C@@H](N)Cc1c[nH]cn1)[C@@H](C)O)C(C)C)C(=O)N[C@@H](C)C(=O)N[C@@](C)(Cc1ccccc1)C(=O)N[C@H](C(=O)N[C@H](C(=O)N[C@@](C)(CCCCN)C(=O)NCC(=O)NCC(N)=O)C(C)C)C(C)C [compound 17] |
| 100 | 100 | 100 | – | – | – | – | – | – | – | CCCCCCCCCCCCCCCC(=O)NCCCC[C@H](NC(=O)CNC(=O)CNC(=O)[C@](C)(CCCCN)NC(=O)[C@@H](NC(=O)[C@@H](NC(=O)[C@](C)(Cc1ccccc1)NC(=O)[C@H](C)NC(=O)[C@@H](NC(=O)[C@](C)(Cc1ccccc1)NC(=O)[C@H](CCC(=O)O)NC(=O)[C@](C)(CCCCN)NC(=O)[C@H](C)NC(=O)[C@H](C)NC(=O)[C@H](CCC(N)=O)NC(=O)CNC(=O)[C@H](CCC(=O)O)NC(=O)[C@H](CC(C)C)NC(=O)[C@](C)(Cc1ccccc1)NC(=O)[C@H](CO)NC(=O)[C@H](CO)NC(=O)[C@@H](NC(=O)[C@H](CC(=O)O)NC(=O)[C@H](CO)NC(=O)[C@@H](NC(=O)[C@](C)(Cc1ccccc1)NC(=O)[C@H](CO)NC(=O)CNC(=O)[C@H](CCC(=O)O)NC(=O)C(C)(C)NC(=O)[C@@H](N)Cc1c[nH]cn1)[C@@H](C)O)C(C)C)[C@@H](C)CC)C(C)C)C(C)C)C(N)=O [compound 489] (H-H[Aib]EGS[αMeF]TSDVSS[αMeF]LEGQAA[αMeK]E[αMeF]IA[αMeF]VV[αMeK]GGK(Palmitoyl)-NH2) |
| 100.0 | 100 | 100 | – | – | – | – | – | – | – | CC[C@H](C)[C@H](NC(=O)[C@H](Cc1ccccc1)NC(=O)[C@H](CCC(=O)O)NC(=O)[C@](C)(CCCCN)NC(=O)[C@H](C)NC(=O)[C@H](C)NC(=O)[C@H](CCC(=O)O)NC(=O)CNC(=O)[C@H](CCC(=O)O)NC(=O)[C@H](CC(C)C)NC(=O)[C@](C)(Cc1ccccc1)NC(=O)[C@H](CO)NC(=O)[C@](C)(CO)NC(=O)[C@@H](NC(=O)[C@H](CC(=O)O)NC(=O)[C@H](CO)NC(=O)[C@@H](NC(=O)[C@](C)(Cc1ccccc1)NC(=O)[C@H](CO)NC(=O)CNC(=O)[C@H](CCC(=O)O)NC(=O)C(C)(C)NC(=O)[C@@H](N)Cc1c[nH]cn1)[C@@H](C)O)C(C)C)C(=O)N[C@@H](CCCCNC(=O)COCCOCCNC(=O)COCCOCCNC(=O)CC[C@H](NC(=O)CCCCCCCCCCCCCCCCC(=O)O)C(=O)O)C(=O)N[C@@H](Cc1c[nH]c2ccccc12)C(=O)N[C@H](C(=O)N[C@H](C(=O)N[C@@H](CCC(=O)O)C(=O)NCC(=O)NCC(N)=O)C(C)C)C(C)C [compound 68] (H-H[Aib]EGS[αMeF]TSDV[αMeS]S[αMeF]LEGEAA[αMeK]EFIK([AEEA-AEEA-γGlu-C18 diacid])WVVEGG-NH2; N-terminus assumed) |
